This passage reports IC50 results from patent US11492341B2, “ACLY inhibitors and uses thereof” (Nimbus Artemis, Inc., priority 2018, dated 2022).

Molecules are shown by their SMILES.

Chain of ACL (P53396 whole entry, species assumed): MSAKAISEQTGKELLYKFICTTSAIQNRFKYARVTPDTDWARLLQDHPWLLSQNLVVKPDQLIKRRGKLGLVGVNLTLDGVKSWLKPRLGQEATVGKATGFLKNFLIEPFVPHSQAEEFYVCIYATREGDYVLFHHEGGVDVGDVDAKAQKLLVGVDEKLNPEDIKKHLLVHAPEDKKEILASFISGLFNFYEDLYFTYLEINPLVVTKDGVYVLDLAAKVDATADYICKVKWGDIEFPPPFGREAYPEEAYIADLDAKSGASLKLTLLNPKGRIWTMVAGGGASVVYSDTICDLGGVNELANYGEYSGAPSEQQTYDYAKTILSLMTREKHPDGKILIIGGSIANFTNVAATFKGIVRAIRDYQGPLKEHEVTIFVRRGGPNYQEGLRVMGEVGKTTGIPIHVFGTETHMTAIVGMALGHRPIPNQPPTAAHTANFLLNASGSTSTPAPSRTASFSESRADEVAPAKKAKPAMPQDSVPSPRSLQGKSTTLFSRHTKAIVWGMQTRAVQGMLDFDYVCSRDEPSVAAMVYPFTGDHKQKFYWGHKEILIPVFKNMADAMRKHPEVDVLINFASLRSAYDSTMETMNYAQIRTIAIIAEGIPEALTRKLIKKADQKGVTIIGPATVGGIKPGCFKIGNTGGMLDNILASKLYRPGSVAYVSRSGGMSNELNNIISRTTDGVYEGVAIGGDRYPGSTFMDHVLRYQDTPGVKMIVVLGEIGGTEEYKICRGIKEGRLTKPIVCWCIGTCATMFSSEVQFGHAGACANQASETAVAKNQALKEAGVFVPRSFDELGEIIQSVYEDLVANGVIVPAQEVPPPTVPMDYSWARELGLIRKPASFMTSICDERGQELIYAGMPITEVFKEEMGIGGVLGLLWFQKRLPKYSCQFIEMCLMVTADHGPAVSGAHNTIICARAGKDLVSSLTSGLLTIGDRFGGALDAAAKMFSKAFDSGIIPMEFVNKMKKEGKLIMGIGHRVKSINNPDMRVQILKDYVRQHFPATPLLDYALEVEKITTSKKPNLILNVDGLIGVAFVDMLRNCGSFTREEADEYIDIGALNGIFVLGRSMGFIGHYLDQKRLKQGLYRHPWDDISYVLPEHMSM

This assay concerns the target ACL (Homo sapiens (Human), UniProt P53396). As to the kind of experiment: ADP-Glo Assay. The settings on record: 3 nM ACL, 15 μM ATP, 3 μM CoA, 300 μM Citrate. It counts as biochemical. As to the method: Example 28. ADP-Glo Assay
Compounds of the present invention were evaluated in an ADP-GLO assay as follows: a) Dilute cpd 1:3 in succession in DMSO by hand for each cpds for 12 pts b) Add 0.1 μL diluted cpd solution to assay plate, each dose with 2 replicates c) Centrifuge 1000 RPM for 1 min d) Add 5 μL ACL working solution to 384-well assay plate, centrifuge 1000 RPM for 1 min e) Incubate at 25° C. for 15 min f) Add 5 μL substrate working solution to initiate reaction g) Final ACL reaction concentrations: 3 nM ACL, 15 μM ATP, 3 μM CoA, 300 μM Citrate, 0.01% Brij35, 4 mM DTT, 1% DMSO; h) Reference final conc: 30 uM starting Conc, 3× dilution, 11+0 points. Test cpd conc: 30/100 uM starting Conc, 3× dilution, 11+0 points. i) Incubate at 25° C. for 60 min j) Add 10 μL ADP Glo reagent, centrifuge 1000 RPM for 1 min k) Incubate at 25° C. for 40 min l) Add 20 μL kinase detection reagent, centrifuge 1000 RPM for 1 min m) Incubate at 25° C. for 40 min n) Read on Envision for US LUM as RLU
Turning to `O=S(=O)(c1cc(Br)cc(Cl)c1O)n1ccc2ccc(-c3ccccc3)cc21` [I-4, 4-bromo-2-chloro-6-((6-phenyl-1H-indol-1-yl)sulfonyl)phenol], the IC50 lay within 0.5 to 20 µM.
The molecule `O=C(O)c1cc2c(cc1Cl)cc(-c1cncnc1)n2S(=O)(=O)c1cc(Br)cc(Cl)c1O` [I-157] registered a 50% inhibitory concentration (IC50) of 0.5 to 20 µM.
On to `O=S(=O)(c1cc(Br)cc(Cl)c1O)n1cc(-c2cncs2)c2cc(Cl)ccc21` [I-159], for which the IC50 is less than 0.5 µM.
`NC(=O)c1ccc2c(c1)cc(-c1ccccc1)n2S(=O)(=O)c1cc(Cl)cc(Cl)c1O` [I-57] came in with an IC50 of 0.5 to 20 µM.
Regarding `O=S(=O)(c1cc(Cl)cc(Cl)c1O)N1CCCCC1c1ccccc1` (stereo not drawn) [I-22], the half-maximal inhibitory concentration (IC50) was 0.5 to 20 µM.
`O=S(=O)(c1cc(Br)cc(Cl)c1O)n1c(-c2cncnc2)cc2ccccc21` [I-29, 4-bromo-2-chloro-6-((2-(pyrimidin-5-yl)-1H-indol-1-yl)sulfonyl)phenol] had an IC50 of 0.5 to 20 µM.
With `Cc1cc2cc(Cl)ccc2n1S(=O)(=O)c1cc(Cl)c(O)cc1Br` [I-149] the figure was 0.5 to 20 µM; with `O=S(=O)(c1cccc(Cl)c1O)n1c(-c2cncnc2)cc2cc(Cl)ccc21` [I-94], 0.5 to 20 µM; with `CCOC(=O)c1cc2cc(Cl)ccc2n1S(=O)(=O)c1ccc(-c2ccccc2)cc1F` [I-164], no less than 20 µM.
As for `O=C(NO)c1ccc2cc(-c3ccccc3)n(S(=O)(=O)c3cc(Br)cc(Cl)c3O)c2c1` [I-154], the IC50 is 0.5 to 20 µM.
In turn, `COc1ccc(C2CCN(S(=O)(=O)c3cc(Cl)cc(Cl)c3O)C2)cc1` (stereo not drawn) [I-11] came in with an IC50 of 0.5 to 20 µM.
With `N#Cc1ccc2c(c1)cc(-c1cncs1)n2S(=O)(=O)c1cc(F)cc(F)c1O` [I-85] the figure was 0.5 to 20 µM; with `O=C(O)c1cc2cc(Cl)ccc2n1S(=O)(=O)c1cc(Cl)cc(Cl)c1O` [I-66], 0.5 to 20 µM.
For `Cc1ccc2c(c1)cc(-c1ccccc1)n2S(=O)(=O)c1cc(Br)cc(Cl)c1O` [I-43], the IC50 was 0.5 to 20 µM.
The figure for `O=c1[nH]cc(Cl)cc1S(=O)(=O)n1c(-c2ccccc2)cc2cc(Cl)ccc21` [I-65, 5-chloro-3-((5-chloro-2-phenyl-1H-indol-1-yl)sulfonyl)pyridin-2(1H)-one] is 0.5 to 20 µM; for `O=S(=O)(c1cc(F)cc(F)c1O)n1c(-c2ccccn2)cc2cc(Cl)ccc21` [I-95] it is 0.5 to 20 µM; for `O=S(=O)(c1cc(Br)cc(Cl)c1O)n1c(C2CC2)cc2cc(Cl)ccc21` [I-41] it is 0.5 to 20 µM.
For the molecule `O=C(O)c1cc(Br)cc(S(=O)(=O)n2c(-c3ccccc3)cc3cc(Cl)ccc32)c1O` [I-89], the IC50 fell in the range of 0.5 to 20 µM.
The figure for `O=S(=O)(c1cc(F)cc(F)c1O)n1c(-c2cccc[n+]2[O-])cc2cc(Cl)ccc21` [I-126] is no less than 20 µM; for `O=S(=O)(c1cc(Cl)cc(Cl)c1O)N1CC(O)(c2ccc(Cl)cc2)C1` [I-9] it is 0.5 to 20 µM.
In the case of `O=C(c1cc(Cl)c(O)c(S(=O)(=O)n2c(-c3ccccc3)cc3cc(Cl)ccc32)c1)N1CCC1` [I-52, azetidin-1-yl(3-chloro-5-((5-chloro-2-phenyl-1H-indol-1-yl)sulfonyl)-4-hydroxyphenyl)methanone], the IC50 fell in the range of 0.5 to 20 µM.
`O=S(=O)(c1cc(Cl)cc(Cl)c1O)N1CC(c2nc3ccccc3s2)C1` [I-15] had an IC50 of 0.5 to 20 µM.
Regarding `O=S(=O)(c1cc(F)cc(F)c1O)n1c(-c2ccncc2)cc2cc(Cl)ccc21` [I-93], the IC50 was in the range of 0.5 to 20 µM.
As to `O=C(O)c1ccc2c(c1)cc(-c1ccccc1)n2S(=O)(=O)c1cc(Br)cc(Cl)c1O` [I-55], the IC50 is less than 0.5 µM.
`O=C(O)c1ccc(-c2cc3cc(Cl)ccc3n2S(=O)(=O)c2cc(Cl)cc(Cl)c2O)cc1` [I-59] gave an IC50 of 0.5 to 20 µM.
Molecule `O=S(=O)(c1cc(F)cc(F)c1O)n1c(-c2ccc[n+]([O-])c2)cc2cc(Cl)ccc21` [I-98] returned an IC50 of 0.5 to 20 µM.
The molecule `CCOC(=O)c1cc2cc(Cl)ccc2n1S(=O)(=O)c1cc(Cl)cc(Cl)c1` [I-108] registered an IC50 of no less than 20 µM.
The molecule `CN(C)C(=O)c1cccc(-c2cc3cc(Cl)ccc3n2S(=O)(=O)c2cc(Br)cc(Cl)c2O)c1` [I-37] showed an IC50 of 0.5 to 20 µM.
In turn, `O=C(O)c1ccc(-c2cc3cc(Cl)ccc3n2S(=O)(=O)c2cc(Cl)cc(Cl)c2)cc1` [I-58] displayed an IC50 of 0.5 to 20 µM.
With `O=S(=O)(c1cc(Br)cc(Cl)c1O)n1c(-c2ccc(OC(F)(F)F)nc2)cc2cc(Cl)ccc21` [I-146] the figure was 0.5 to 20 µM.
As for `COC(=O)c1ccc2c(c1)cc(-c1ccccc1)n2S(=O)(=O)c1cc(F)cc(F)c1` [I-114], the IC50 was no less than 20 µM.
Molecule `CN(C)C(=O)c1ccc2cc(-c3ccccc3)n(S(=O)(=O)c3cc(Br)cc(Cl)c3O)c2c1` [I-80] had an IC50 of 0.5 to 20 µM.
`COc1c(Cl)cc(Br)cc1S(=O)(=O)n1c(-c2ccccc2)cc2cc(Cl)ccc21` [I-107, 1-((5-bromo-3-chloro-2-methoxyphenyl)sulfonyl)-5-chloro-2-phenyl-1H-indole] displayed an IC50 of no less than 20 µM.
Regarding `O=S(=O)(c1cc(Cl)cc(Cl)c1O)N1CCC(Oc2ccccc2)CC1` [I-10], the IC50 lay within 0.5 to 20 µM.
The molecule `O=S(=O)(c1cc(F)cc(F)c1O)n1c(-c2cccnc2)cc2cc(Cl)ccc21` [I-91] yielded an IC50 of 0.5 to 20 µM.
In turn, `Cc1cc2cc(Cl)c(O)cc2n1S(=O)(=O)c1cc(Br)cc(Cl)c1O` [I-158] showed an IC50 of 0.5 to 20 µM.
`O=C(O)c1ccc2cc(-c3ccccc3)n(S(=O)(=O)c3cc(Br)cc(Cl)c3O)c2c1` [I-67] showed a concentration for half-maximal inhibition (IC50) of 0.5 to 20 µM.
For `Cc1nccnc1-c1cc2cc(Cl)ccc2n1S(=O)(=O)c1cc(F)cc(F)c1O` [I-135], the IC50 was 0.5 to 20 µM.
The figure for `N#Cc1ccc2c(c1)cc(-c1cc3ccccc3s1)n2S(=O)(=O)c1cc(Br)cc(Cl)c1O` [I-161] is 0.5 to 20 µM.
Consider `O=C(O)c1cc(Cl)c(O)c(S(=O)(=O)N2CCc3ccc(-c4ccccc4)cc32)c1` [I-5], for which the IC50 lay in the range of 0.5 to 20 µM.
The figure for `O=S(=O)(c1cc(F)cc(F)c1O)n1c(-c2cccnn2)cc2cc(Cl)ccc21` [I-99] is 0.5 to 20 µM.
`O=C(O)c1ccc2cc(-c3ccccc3)n(S(=O)(=O)c3cc(Cl)cc(Br)c3)c2c1` [I-69] yielded a 50% inhibitory concentration (IC50) of 0.5 to 20 µM.
The figure for `O=c1[nH]cc(Cl)cc1S(=O)(=O)n1c(-c2ccc(OC(F)(F)F)cc2)cc2cc(Cl)ccc21` [I-64, 5-chloro-3-((5-chloro-2-(4-(trifluoromethoxy)phenyl)-1H-indol-1-yl)sulfonyl)pyridin-2(1H)-one] is 0.5 to 20 µM.
As to `N#Cc1ccc2c(c1)cc(-c1cn[nH]c1)n2S(=O)(=O)c1cc(F)cc(F)c1O` [I-74], the concentration for half-maximal inhibition (IC50) was in the range of 0.5 to 20 µM.
Take `COc1ccc2c(c1)CCN2S(=O)(=O)c1cc(Cl)cc(Cl)c1O` [I-17]: the IC50 fell in the range of 0.5 to 20 µM.
Molecule `COCOc1cc2c(cc1Cl)cc(C)n2S(=O)(=O)c1cc(Br)cc(Cl)c1O` [I-150] had an IC50 of 0.5 to 20 µM.
As for `O=C(O)c1cc(C(=O)O)c(O)c(S(=O)(=O)n2c(-c3ccccc3)cc3cc(Cl)ccc32)c1` [I-121], the IC50 was 0.5 to 20 µM.
The figure for `O=S(=O)(c1cc(Cl)cc(Cl)c1O)N1CCC(Cc2ccccc2)C1` (stereo not drawn) [I-18] is 0.5 to 20 µM; for `NC(=O)c1cc(Cl)c(O)c(S(=O)(=O)n2c(-c3ccccc3)cc3cc(Cl)ccc32)c1` [I-79] it is 0.5 to 20 µM; for `O=S(=O)(c1cc(Cl)cc(Cl)c1O)N1CCC1c1ccccc1F` (stereo not drawn) [I-12] it is 0.5 to 20 µM.
`N#Cc1ccc2c(c1)cc(-c1cnc[nH]1)n2S(=O)(=O)c1cc(F)cc(F)c1O` [I-83] registered an IC50 of 0.5 to 20 µM.

The IC50 is the concentration that gives 50% inhibition. High values mean lower potency, low ones higher potency.
